Conditions: Liquid, Calculated from knudsen effusion weight loss

CCC[n+]1ccn(CC)c1.O=S(=O)([N-]S(=O)(=O)C(F)(F)F)C(F)(F)F
Conditions	vapor or sublimation pressure [kPa]
463.58 K	4.86e-05
465.61 K	5.55e-05
467.59 K	6.29e-05
469.6 K	7.12e-05
471.62 K	8.07e-05
473.62 K	9.11e-05
475.62 K	0.0001034
477.63 K	0.0001172
479.56 K	0.0001311
481.58 K	0.0001487
483.6 K	0.0001651
485.61 K	0.0001872
487.62 K	0.0002112
489.62 K	0.0002364

Cn1cc[n+](C)c1.O=S(=O)([N-]S(=O)(=O)C(F)(F)F)C(F)(F)F [1,3-dimethylimidazolium bis((trifluoromethyl)sulfonyl)amide]
Conditions	vapor or sublimation pressure [kPa]
475.62 K	4.15e-05
477.6 K	4.7e-05
479.6 K	5.33e-05
481.59 K	6.01e-05
483.59 K	6.78e-05
485.6 K	7.63e-05
487.6 K	8.56e-05
489.62 K	9.57e-05
491.67 K	0.0001095
493.68 K	0.0001225

Reference: the NIST ThermoML archive (doi:10.1016/j.jct.2013.09.020)
